Read-outs that look alike come from different tables or passages of the source.
Columns and labels:
[1] = test system: MCF-7, HepG2, and HCT-116 cell lines; parameters: method as in doi:10.2174/1570178617666200320104923; settings: read-out: IC50 inhibition of cell proliferation (range over cell lines); cited from earlier work
[2] = test system: HCT-116 colorectal carcinoma cell line; parameters: method as in doi:10.2174/1570178617666200320104923; settings: Figure 1 design strategy, earlier lead; cited from earlier work
[3] = test system: MCF-7 breast adenocarcinoma cell line; parameters: method as in doi:10.2174/1570178617666200320104923; settings: Figure 1 design strategy, earlier lead; cited from earlier work
[4] = test system: MCF-7 breast adenocarcinoma cell line; assay: Sulforhodamine B (SRB) cytotoxicity assay, MCF-7; type: cell-based; settings: Homo sapiens, MCF7, 72 h
Protocol: (§1) Human hepatocellular carcinoma cell line (HepG-2, ATCC HB-8065), colorectal adenocarcinoma cell line (HCT-116, ATCC CCL-247), and breast adenocarcinoma cell line (MCF-7, ATCC HTB-22) were obtained from the American type culture collection (ATCC). Cells were maintained in RPMI-1640 supplemented with (100 μg/ml) penicillin (100 units/ml) and heat-inactivated fetal bovine serum (10% v/v) in a humidified, 5% (v/v) CO2 atmosphere at 37°C [13].
(§2) The cytotoxicity of the different compounds was tested against human tumor cells using the sulforhodamine B assay (SRB). Healthy growing cells were cultured in a 96-well tissue culture plate (3000 cells/well) for 24 hours to allow attachment of the cells to the plate before treatment with the tested compounds. […] Triplicate wells were incubated with different concentrations for 72 h and subsequently fixed with TCA (10% w/v) for 1 h at 4°C. […] After drying overnight, the SRB-stained cells were dissolved with tris-HCl and the color intensity was measured in a microplate reader at 540 nm.
(§3) The SRB assay is the “gold-standard” assay and is extensively used in the high-throughput screening program at the National Cancer Institute (NCI), USA. The SRB uses an aminoxanthene dye, which readily stains the cells through binding with the basic amino acids of cellular proteins. […]

[5] = test system: HepG2 hepatocellular carcinoma cell line; assay: Sulforhodamine B (SRB) cytotoxicity assay, HepG2; type: cell-based; settings: Homo sapiens, 72 h
Protocol: as §1, §2, §3

[6] = test system: HCT-116 colorectal carcinoma cell line; assay: Sulforhodamine B (SRB) cytotoxicity assay, HCT-116; type: cell-based; settings: Homo sapiens, 72 h
Protocol: as §1, §2, §3

## CC1=NN(C(=O)c2ccncc2)C(=O)C1=NNc1ccc([N+](=O)[O-])cc1 [1-isonicotinoyl-3-methyl-4-[2-(4-nitrophenyl)hydrazono]-2-pyrazolin-5-one]
[1]
  IC50: 0.2 to 3.4 µM

## COc1ccc(/N=N/c2c(C)nn(C(=O)c3ccncc3)c2C)cc1 [Aryldiazenyl pyrazoles (ADP)]
[2]
  IC50: 61.3 µM

## CC1=NN(C(=O)c2ccncc2)C(=O)/C1=N/Nc1ccc([N+](=O)[O-])cc1 [Arylhydrazono pyrazoles (AHP)]
[3]
  IC50: 0.2 µM

## COc1cccc2c1C(=O)c1c(O)c3c(c(O)c1C2=O)C[C@@](O)(C(=O)CO)C[C@@H]3O[C@H]1C[C@H](N)[C@H](O)[C@H](C)O1 [Doxorubicin]
[4]
  IC50: 4.7 ± 0.08 µM
[5]
  IC50: 3.9 ± 0.06 µM
[6]
  IC50: 4.4 ± 0.04 µM

Source: article PMC8277517, “Anticolon Cancer Properties of Pyrazole Derivatives Acting through Xanthine Oxidase Inhibition” (Journal of Oncology, 2021)
